Laboratory results as given in patent US4076819A, “Thieno-pyridine derivatives and therapeutic composition containing same” (priority 1975, dated 1978).

Tests used:
[1] = tested on: ovalbumin-induced systemic edema; experiment: Ovalbumin-induced systemic edema method (anti-inflammatory action); assay type: in vivo; conditions: rats, oral 100 mg/kg given 1 h before and simultaneously with ovalbumin
Procedure: (b) Ovalbumin-induced systemic edema method
Rats are administered a simultaneous intraperitoneal injection of 1 ml ovalbumin and 0.5 ml of a 1% aqueous Evans Blue solution. The animals of the treated group are additionally administered orally 100 mg/kg of the test derivative, one hour prior to ovalbumin administration and simultaneously with said ovalbumin administration. The intensity of the phenomenon thus induced is scored according to a scale from 1 to 5, according to the progress of the inflammatory syndrome. The determinations are effected after 2 hours and after 3 hours. Thus are determined the mean intensity of the edema and the percent decrease of the edema reaction.

[2] = tested on: carrageenin-induced edema; experiment: Localized carrageenin-induced edema method (anti-inflammatory action); assay type: in vivo; conditions: rats, oral 100 mg/kg given 1 h before, simultaneously with, and 1 h and 2.5 h after carrageenin
Procedure: (a) Localized carrageenin-induced edema method
A 1% carrageenin solution (1 ml) is injected in the metatarsal flexor muscles of the right hind limb of rats at time 0. The animals of the treated group are additionally administered orally 100 mg/kg of the test derivative, respectively 1 hour prior to and then simultaneously with the phlogogenic agent, and then one hour and 2.5 hours thereafter. The percent anti-inflammatory activity, as a function of time, is determined by measurements effected with a ROCH micrometer at times 0, 1 hour, 2 hours, 3 hours and 5 hours after carrageenin administration.

[3] = tested on: blood plate aggregation; experiment: Inhibiting activity on blood plate aggregation (adenosine diphosphate-induced, turbidimetric assay on plasma of treated rats); assay type: in vivo; conditions: Rattus norvegicus, rats administered 100 mg/kg, read-out: percent inhibition on blood plate aggregation
Procedure: 2. Inhibiting activity on blood plate aggregation
Rat plasma, prepared to contain 600,000±20,000 blood platelets per mm^3 is normally cloudy. Addition of adenosine diphosphate induces blood plate aggregation and, thus, an increase of the light transmission, a phenomenon readily measurable with a spectrophotometer. When the same test is effected with a plasma prepared from the blood of an animal which has been administered 100 mg/kg of a derivative having an inhibiting effect on blood plate aggregation, there is no aggregation of the blood plates and the serum remains cloudy. The turbidimetric assay effected with a spectrophotometer provides a measure of the inhibiting activity on blood plate aggregation of the test derivatives.

[4] = in vivo; conditions: mouse, mice, intravenous route, calculated by method of Miller and Tainter, read-out: LD50 /24 hrs/kg body weight

Compound	Percent decrease (of the edema reaction) After 2 hours [1]	Percent decrease (of the edema reaction) After 3 hours [1]	Percent anti-inflammatory activity after 1 hour [2]	Percent anti-inflammatory activity after 2 hours [2]	Percent anti-inflammatory activity after 5 hours [2]	inhibition at 100 mg/kg [3]	LD50 at 24 h [4]
O=C(Nc1ccccc1)N1Cc2sccc2C(O)C1 (centres unmarked) [Derivative 5, 4-Hydroxy-6-N-phenylcarbamoyl-4,5,6,7-tetrahydro-thieno[2,3-c]-pyridine]	33%	43%	41%	50%	55%	89%	–
CC(=O)CCN1Cc2ccsc2C(O)C1 (centres unmarked) [Derivative 7, 7-Hydroxy-5-(3-oxo-butyl)-4,5,6,7-tetrahydro-thieno[3,2-c]-pyridine]	41%	52%	42%	56%	60%	–	260 mg/kg
Cc1ccc(S(=O)(=O)N2Cc3sccc3C(O)C2)cc1 (centres unmarked) [Derivative 4, 4-Hydroxy-6-p.toluenesulfonyl-4,5,6,7-tetrahydro-thieno[2,3-c]-pyridine]	–	–	–	–	–	92%	–
OC1CN(Cc2ccc(Cl)cc2)Cc2sccc21 (centres unmarked) [Derivative 20]	–	–	–	–	–	–	110 mg/kg
CN1Cc2sccc2C(O)C1 (centres unmarked) [Derivative 10]	–	–	–	–	–	–	340 mg/kg
COc1ccc(CN2Cc3sccc3C(OC(C)=O)C2)cc1 (centres unmarked) [Derivative 21]	–	–	–	–	–	–	245 mg/kg
O=C(CN1CCCC1)N1Cc2sccc2C(O)C1 (centres unmarked) [Derivative 2, 4-Hydroxy-6-pyrrolidinoacetyl-4,5,6,7-tetrahydro-thieno[2,3-c]-pyridine]	38%	44%	35%	48%	55%	–	225 mg/kg
O=[N+]([O-])c1ccc(CN2Cc3sccc3C(O)C2)cc1 (centres unmarked) [Derivative 24]	–	–	–	–	–	–	150 mg/kg
CC(=O)OC1CN(Cc2ccccc2Cl)Cc2sccc21 (centres unmarked) [Derivative 18]	42%	58%	34%	44%	57%	74%	–
CC(=O)CCN1Cc2sccc2C(O)C1 (centres unmarked) [Derivative 16]	–	–	–	–	–	–	250 mg/kg
CN1Cc2ccsc2C(O)C1 (centres unmarked) [Derivative 29]	49%	59%	45%	55%	61%	88%	350 mg/kg
CCCNC(=O)OC1CN(C)Cc2sccc21 (centres unmarked) [Derivative 9, 6-Methyl-4-N-propylcarbamoyloxy-4,5,6,7-tetrahydro-thieno-[2,3-c]-pyridine]	–	–	–	–	–	86%	220 mg/kg
CNC(=O)OC1CN(C)Cc2sccc21 (centres unmarked) [Derivative 14]	–	–	–	–	–	–	280 mg/kg
COc1cc(C(=O)N2Cc3sccc3C(O)C2)cc(OC)c1OC (centres unmarked) [Derivative 26]	51%	63%	36%	49%	54%	–	–
CC1c2sccc2C(O)CN1C (centres unmarked) [Derivative 11]	–	–	–	–	–	–	220 mg/kg
CC(=O)OC1CN(C(=O)C(Cl)Cl)Cc2sccc21 (centres unmarked) [Derivative 25]	–	–	–	–	–	84%	–
CC(=O)OC1CN(Cc2ccccc2Cl)Cc2ccsc21 (centres unmarked) [Derivative 8, 7-Acetoxy-5-o-chlorobenzyl-4,5,6,7-tetrahydro-thieno[3,2-c]-pyridine]	–	–	–	–	–	–	200 mg/kg
O=[N+]([O-])c1ccccc1CN1Cc2sccc2C(O)C1 (centres unmarked) [Derivative 22]	–	–	–	–	–	93%	–
CC(=O)OC1CN(C)Cc2sccc21 (centres unmarked) [Derivative 12]	46%	59%	37%	50%	58%	–	260 mg/kg
O=[N+]([O-])c1ccc(CN2Cc3ccsc3C(O)C2)cc1 (centres unmarked) [Derivative 1, 7-Hydroxy-5-p.nitrobenzyl-4,5,6,7-tetrahydro-thieno[3,2-c]-pyridine]	–	–	–	–	–	–	90 mg/kg
